The values below come from publication PMC4664181 (ChemMedChem, 2009).

Assay [1] deals with native NMDA receptors. Nature of the assay: Radioligand binding assay. The following applies: rat brain synaptosomes; for [3H]CGP39653 mean pKi ± SEM: three to five experiments; for Ki: read-out: [3H]CGP39653 Ki, mean of three to five experiments.
In assay [2] the target is T1, NR1/NR2A (Rattus norvegicus, UniProt Q00959). Format: cell-based. The following applies: for EC50: NR = no response up to 1000 μM.
T1 sequence (Q00959 23-1464, other chains not shown): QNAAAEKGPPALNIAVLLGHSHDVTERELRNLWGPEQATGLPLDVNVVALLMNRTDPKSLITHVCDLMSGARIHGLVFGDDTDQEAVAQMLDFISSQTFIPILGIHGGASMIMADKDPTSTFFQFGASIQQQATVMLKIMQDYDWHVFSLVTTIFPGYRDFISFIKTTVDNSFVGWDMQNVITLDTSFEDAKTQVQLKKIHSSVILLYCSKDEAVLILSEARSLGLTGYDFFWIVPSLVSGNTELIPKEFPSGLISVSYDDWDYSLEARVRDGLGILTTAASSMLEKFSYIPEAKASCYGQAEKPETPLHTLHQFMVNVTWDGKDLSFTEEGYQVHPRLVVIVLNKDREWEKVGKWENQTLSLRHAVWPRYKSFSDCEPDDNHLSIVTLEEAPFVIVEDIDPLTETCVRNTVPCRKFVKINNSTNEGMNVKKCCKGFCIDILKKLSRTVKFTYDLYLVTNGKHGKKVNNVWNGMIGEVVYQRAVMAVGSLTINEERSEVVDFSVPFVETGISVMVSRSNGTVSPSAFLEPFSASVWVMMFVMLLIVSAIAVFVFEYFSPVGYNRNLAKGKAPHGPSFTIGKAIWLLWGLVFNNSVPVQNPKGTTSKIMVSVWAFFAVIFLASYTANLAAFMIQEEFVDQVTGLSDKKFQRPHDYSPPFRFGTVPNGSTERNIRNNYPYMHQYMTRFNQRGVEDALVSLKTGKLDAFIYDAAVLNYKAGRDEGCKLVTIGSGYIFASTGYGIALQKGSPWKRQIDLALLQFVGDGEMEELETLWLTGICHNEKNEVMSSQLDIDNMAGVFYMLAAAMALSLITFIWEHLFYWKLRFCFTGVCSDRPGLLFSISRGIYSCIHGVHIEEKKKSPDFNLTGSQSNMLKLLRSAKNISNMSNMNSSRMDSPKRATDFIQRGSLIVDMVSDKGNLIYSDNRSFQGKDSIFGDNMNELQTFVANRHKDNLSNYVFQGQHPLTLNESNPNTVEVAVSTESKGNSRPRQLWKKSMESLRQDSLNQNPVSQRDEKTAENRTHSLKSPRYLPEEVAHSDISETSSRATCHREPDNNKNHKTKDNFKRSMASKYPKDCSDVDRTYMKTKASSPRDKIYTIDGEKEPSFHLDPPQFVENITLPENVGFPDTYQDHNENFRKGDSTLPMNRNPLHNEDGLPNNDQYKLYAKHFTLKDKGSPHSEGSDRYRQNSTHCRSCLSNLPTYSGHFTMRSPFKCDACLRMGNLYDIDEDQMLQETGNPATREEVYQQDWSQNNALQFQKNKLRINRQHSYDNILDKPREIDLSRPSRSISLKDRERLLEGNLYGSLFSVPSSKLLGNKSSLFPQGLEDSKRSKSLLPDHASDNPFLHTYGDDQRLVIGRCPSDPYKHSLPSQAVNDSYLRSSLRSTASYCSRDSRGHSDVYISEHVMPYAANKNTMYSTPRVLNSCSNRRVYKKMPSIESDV
The target of assay [3] is T2, NR1/NR2B (Rattus norvegicus, UniProt Q00960). Format: cell-based. The following applies: NR1/NR2B; for EC50: NR = no response up to 1000 μM.
In assay [4] the target is T3, NR1/NR2C (Rattus norvegicus, UniProt Q00961). Format: cell-based. The following applies: NR1/NR2C; for I/Imax (relative maximal response): relative to maximal response to glutamate (1.0).
T3 sequence (Q00961 20-1237, other chains not shown): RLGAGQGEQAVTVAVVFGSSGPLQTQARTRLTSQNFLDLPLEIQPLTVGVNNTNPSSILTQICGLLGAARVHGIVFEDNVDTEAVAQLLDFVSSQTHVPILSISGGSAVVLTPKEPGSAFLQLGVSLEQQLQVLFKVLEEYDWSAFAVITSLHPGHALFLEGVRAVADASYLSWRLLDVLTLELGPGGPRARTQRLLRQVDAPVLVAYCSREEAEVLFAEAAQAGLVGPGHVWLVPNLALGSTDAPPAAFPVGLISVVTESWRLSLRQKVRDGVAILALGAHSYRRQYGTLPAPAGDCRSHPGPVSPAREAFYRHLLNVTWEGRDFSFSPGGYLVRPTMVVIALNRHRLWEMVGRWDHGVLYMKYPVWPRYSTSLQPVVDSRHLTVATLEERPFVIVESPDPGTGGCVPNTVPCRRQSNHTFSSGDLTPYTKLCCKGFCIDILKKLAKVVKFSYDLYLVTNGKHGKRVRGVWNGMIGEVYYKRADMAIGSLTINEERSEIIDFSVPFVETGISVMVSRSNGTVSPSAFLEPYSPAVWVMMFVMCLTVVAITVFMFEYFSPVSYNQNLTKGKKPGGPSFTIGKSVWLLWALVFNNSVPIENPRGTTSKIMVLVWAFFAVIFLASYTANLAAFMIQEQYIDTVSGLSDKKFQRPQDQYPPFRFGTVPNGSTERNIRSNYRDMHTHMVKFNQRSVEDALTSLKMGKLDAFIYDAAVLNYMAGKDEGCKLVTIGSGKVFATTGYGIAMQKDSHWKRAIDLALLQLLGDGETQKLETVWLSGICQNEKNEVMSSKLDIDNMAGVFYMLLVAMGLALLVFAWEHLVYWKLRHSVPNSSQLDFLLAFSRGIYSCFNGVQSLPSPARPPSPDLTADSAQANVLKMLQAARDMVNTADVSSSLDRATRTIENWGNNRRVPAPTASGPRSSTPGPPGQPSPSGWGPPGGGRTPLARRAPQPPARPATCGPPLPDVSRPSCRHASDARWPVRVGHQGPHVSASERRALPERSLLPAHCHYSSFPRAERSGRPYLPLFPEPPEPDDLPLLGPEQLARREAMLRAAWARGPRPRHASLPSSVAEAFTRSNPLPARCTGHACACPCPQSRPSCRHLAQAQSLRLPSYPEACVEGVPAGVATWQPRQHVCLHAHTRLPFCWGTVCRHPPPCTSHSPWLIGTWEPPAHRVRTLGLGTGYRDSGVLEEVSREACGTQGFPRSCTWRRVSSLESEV
The target of assay [5] is T4, NR1/NR2D (Rattus norvegicus, UniProt Q62645). In kind it is cell-based. As to conditions: for Agonist activity (in words) / EC50 / pEC50 (mean ± SEM) / I/Imax (relative maximal response): NR1/NR2D; for I/Imax (relative maximal response): relative to maximal response to glutamate (1.0).
T4 sequence (Q62645 28-1323, other chains not shown): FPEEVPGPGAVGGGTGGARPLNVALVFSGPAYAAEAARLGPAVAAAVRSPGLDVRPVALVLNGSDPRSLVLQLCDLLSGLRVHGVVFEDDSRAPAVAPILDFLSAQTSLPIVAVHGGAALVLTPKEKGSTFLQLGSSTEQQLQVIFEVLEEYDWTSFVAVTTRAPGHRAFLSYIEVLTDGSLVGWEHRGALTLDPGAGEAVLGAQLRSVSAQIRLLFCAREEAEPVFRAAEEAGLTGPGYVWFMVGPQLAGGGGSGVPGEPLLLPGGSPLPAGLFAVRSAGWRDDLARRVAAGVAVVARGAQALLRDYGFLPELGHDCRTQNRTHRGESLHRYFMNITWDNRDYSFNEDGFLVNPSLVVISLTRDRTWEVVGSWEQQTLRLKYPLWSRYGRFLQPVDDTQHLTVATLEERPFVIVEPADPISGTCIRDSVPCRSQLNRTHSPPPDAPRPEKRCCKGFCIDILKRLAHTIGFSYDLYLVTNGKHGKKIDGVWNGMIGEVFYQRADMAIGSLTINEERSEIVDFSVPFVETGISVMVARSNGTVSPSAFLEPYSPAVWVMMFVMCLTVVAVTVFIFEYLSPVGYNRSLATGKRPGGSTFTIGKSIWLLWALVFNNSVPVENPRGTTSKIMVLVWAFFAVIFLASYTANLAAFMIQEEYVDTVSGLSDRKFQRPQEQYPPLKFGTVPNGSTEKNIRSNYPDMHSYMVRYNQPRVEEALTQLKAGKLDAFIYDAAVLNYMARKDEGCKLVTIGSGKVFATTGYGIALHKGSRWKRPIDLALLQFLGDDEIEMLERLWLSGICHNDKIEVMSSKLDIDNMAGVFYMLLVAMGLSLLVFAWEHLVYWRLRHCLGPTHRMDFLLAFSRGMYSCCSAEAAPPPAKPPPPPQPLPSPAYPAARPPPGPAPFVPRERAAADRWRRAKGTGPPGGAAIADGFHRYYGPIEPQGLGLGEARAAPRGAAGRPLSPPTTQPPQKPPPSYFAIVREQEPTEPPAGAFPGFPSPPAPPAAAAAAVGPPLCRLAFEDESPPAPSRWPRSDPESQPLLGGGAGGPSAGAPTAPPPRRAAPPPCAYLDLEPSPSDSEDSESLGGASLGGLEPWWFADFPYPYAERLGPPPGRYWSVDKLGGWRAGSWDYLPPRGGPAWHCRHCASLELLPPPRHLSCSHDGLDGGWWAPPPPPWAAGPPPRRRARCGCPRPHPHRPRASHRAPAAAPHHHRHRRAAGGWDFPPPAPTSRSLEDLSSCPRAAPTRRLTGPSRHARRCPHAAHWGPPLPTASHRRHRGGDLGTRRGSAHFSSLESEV
Assay [6] deals with NR1/NR2B (Rattus norvegicus, UniProt P35439+Q00960). In kind it is cell-based.
The target in assay [7] is NR1/NR2C (Rattus norvegicus, UniProt P35439+Q00961). In kind it is cell-based.
Sequence of NR1/NR2C (Rattus norvegicus, UniProt P35439+Q00961) (Q00961 20-1237, other chains not shown): as the sequence (Q00961 20-1237, other chains not shown) above
Assay [8] deals with NR1/NR2D (Rattus norvegicus, UniProt P35439+Q62645). Format: cell-based.
Sequence of NR1/NR2D (Rattus norvegicus, UniProt P35439+Q62645) (Q62645 28-1323, other chains not shown): as the sequence (Q62645 28-1323, other chains not shown) above
Assay [9] has as its system native excitatory amino acid transporters (EAATs). As to conditions: cited from earlier work.
The target in assay [10] is T3, NR1/NR2C. The following applies: cited from earlier work.
The target in assay [11] is T2, NR1/NR2B. The following applies: cited from earlier work.
For assay [12], the target named is native NMDA receptors. The following applies: read-out: [3H]CGP39653 Ki; rat brain synaptosomes; cited from earlier work.
Assay [13] concerns the target T1, NR1/NR2A. As to conditions: cited from earlier work.
Assay [14] has as its target T4, NR1/NR2D. As to conditions: cited from earlier work.
Assay [15] deals with NR2A (Y730 to phenylalanine). The following applies: mutant vs wild type NR2A; cited from earlier work.
A further assay deals with NR2D(Y732F). As to conditions: mutant vs wild type NR2D; cited from earlier work.
Where [16] appears, read: relative to maximal response to glutamate (1.0).

“Also recorded” adds a separate entry of the source. Read-outs that look alike come from different tables or passages of the source.

The Ki is a measure of affinity in units of concentration, obtained from inhibition or displacement. By EC50 is commonly meant the concentration giving half of the maximal effect. For the molecule `O=C(O)[C@H]1CN[C@H]1C(=O)O` [D-cis-ADC, (2R,3S)-Azetidine-2,3-dicarboxylic acid], on native NMDA receptors [1], the “[3H]CGP39653 mean pKi ± SEM” value came to 4.74 ± 0.13 and the inhibition constant Ki stood at 21 µM. Besides, on NR1/NR2A [2], the EC50 is greater than 1000 µM. Besides, on NR1/NR2B [3], the “Agonist activity (in words)” value was “activated” and the EC50 was greater than 3000 µM. At NR1/NR2C [4], the “Agonist activity (in words)” value was “activated; also recorded: partial agonist”, a half-maximal effect (EC50) was put at 720 µM, the “pEC50 (mean ± SEM)” value is 3.15±0.06 and the “I/Imax (relative maximal response)” value turned out to be 0.47 ± 0.03. Also, at NR1/NR2D [5], the “Agonist activity (in words)” value is reported as “activated; also recorded: partial agonist”, the concentration for a half-maximal effect (EC50) worked out at 230 µM, the “pEC50 (mean ± SEM)” value came to 3.63±0.01 and the “I/Imax (relative maximal response)” value turned out to be 0.67 ± 0.01.

As for `O=C(O)[C@@H]1CN[C@H]1C(=O)O` [D-trans-ADC, (2R,3R)-Azetidine-2,3-dicarboxylic acid], in the assay with native NMDA receptors [1], the “Affinity for glutamate binding site of native NMDA receptors (in words)” value is given as “essentially without affinity”. In addition, the “[3H]CGP39653 mean pKi ± SEM” value at native NMDA receptors [1] was 4.05 ± 0.03. In addition, the inhibition constant (Ki) on native NMDA receptors [1] stood at 90 µM. Also, the EC50 at NR1/NR2A [2] is greater than 1000 µM; at NR1/NR2B [6], greater than 1000 µM; at NR1/NR2C [7], greater than 1000 µM; on NR1/NR2D [8], 660 µM. For the same molecule, the “Agonist activity (in words)” value at NR1/NR2B [3], on NR1/NR2C [4] and at NR1/NR2D [5] was “activated” in each case. For the same molecule, the “I/Imax (relative maximal response)” value at NR1/NR2D [5] stood at 0.69 ± 0.01.

On to `O=C(O)[C@H]1NC[C@H]1C(=O)O` [L-cis-ADC], for which, in the assay with native NMDA receptors [1], the “Affinity for glutamate binding site of native NMDA receptors (in words)” value was “essentially without affinity”. The inhibition constant (Ki) at native NMDA receptors [1] is greater than 100 µM. Further, the “Agonist activity (in words)” value is reported as “unable to activate” on NR1/NR2A [2], “unable to activate” on NR1/NR2B [3], “only at high concentrations (1000 μM) some activation” on NR1/NR2C [4] and “only at high concentrations (1000 μM) some activation” on NR1/NR2D [5]. The concentration giving a half-maximal response (EC50) at NR1/NR2A [2], at NR1/NR2B [3], on NR1/NR2C [4] and on NR1/NR2D [5] was greater than 1000 µM throughout.

On to `O=C(O)[C@H]1CN[C@@H]1C(=O)O` [L-trans-ADC], for which the “[3H]CGP39653 mean pKi ± SEM” value at native NMDA receptors [1] is reported as 5.04 ± 0.10. Further, the inhibition constant Ki at native NMDA receptors [1] was determined as 10 µM. For the same molecule, the “Affinity at native EAATs (in words)” value in assay [9] was “affinity in the medium micromolar range”. Moreover, the “Agonist activity (in words)” value on NR1/NR2A [2] is “able to (partially) activate”. Also, the “pEC50 (mean ± SEM)” value on NR1/NR2A [2] came out at 3.32±0.03; on NR1/NR2B [3], 3.76±0.01; at NR1/NR2C [4], 4.02±0.02; on NR1/NR2D [5] it was 4.30±0.02. Further, the EC50 at NR1/NR2A [2] was found to be 470 µM; at NR1/NR2B [3] it was 170 µM; on NR1/NR2C [4], 95 µM; on NR1/NR2D [5], 50 µM. Further, the “I/Imax (relative maximal response)” value at NR1/NR2A [2] (setting [16]) was determined as 0.38 ± 0.02; on NR1/NR2B [3] (setting [16]), 0.48 ± 0.01; at NR1/NR2C [4], 0.73 ± 0.03; at NR1/NR2D [5], 0.80 ± 0.01. Also, the “Preference (agonist potency) for NR1/NR2D over NR1/NR2A” value at NR1/NR2D [5] (NR1/NR2D vs NR1/NR2A) was 9.4 fold. Besides, the “Preference (agonist potency) for NR1/NR2D over NR1/NR2B” value on NR1/NR2D [5] (NR1/NR2D vs NR1/NR2B) worked out at 3.4 fold. Also, at NR1/NR2D [5] (NR1/NR2D vs NR1/NR2C), the “Preference (agonist potency) for NR1/NR2D over NR1/NR2C” value was determined as 1.9 fold.

Regarding `CN[C@H](CC(=O)O)C(=O)O` [NMDA, N-methyl-D-aspartic acid], the 50% effective concentration (EC50) on NR1/NR2C [10] is 23 µM; at NR1/NR2B [11] it was 22 µM; on NR1/NR2A [13], 75 µM; at NR1/NR2D [14] (NR1/NR2D), 8.3 µM. Also, the “pEC50 (mean ± SEM)” value on NR1/NR2C [10] was 4.63±0.02; at NR1/NR2B [11], 4.66±0.03; at NR1/NR2A [13] it was 4.13±0.07; on NR1/NR2D [14] (NR1/NR2D) it was 5.08±0.04. The “I/Imax (relative maximal response)” value on NR1/NR2C [10] (relative to glutamate (1.0)) was 0.73 ± 0.02; on NR1/NR2B [11] (relative to glutamate (1.0)) it was 0.77 ± 0.01; at NR1/NR2A [13] (relative to glutamate (1.0)), 0.90 ± 0.04; on NR1/NR2D [14] (NR1/NR2D, relative to glutamate (1.0)) it was 0.80 ± 0.02. Further, the Ki at native NMDA receptors [12] is 6.2 µM.

Regarding `C[C@H](C[C@H](N)C(=O)O)C(=O)O` [SYM2081, (2S,4R)-4-methylglutamate], the “Higher potency at NR1/NR2D over NR1/NR2A” value on NR1/NR2D [14] (NR1/NR2D vs NR1/NR2A) was 46 fold.

With `N[C@@H](CCC(=O)O)C(=O)O` [glutamate, (S)-glutamate], in [15], the “Decrease of potency by mutation Y730 to phenylalanine in NR2A” value is reported as 45 fold. For the same molecule, the “Change of potency on NR2D(Y732F) (in words)” value in the assay with NR2D(Y732F) was “slightly increased”.
